Measurements taken from ChEMBL document CHEMBL1135178, “Photo-oxygenation of geraniol: synthesis of a novel series of hydroxy-functionalized anti-malarial 1,2,4-trioxanes” (2002).
Converted amounts (≈) assume the structure as drawn.

What was measured:
Plasmodium falciparum = assay: Antimalarial activity against Plasmodium falciparum NF54; type: functional
Mus musculus [1] = assay: Total number of mice protected out of the 5 tested at a dose of 48 mg/kg/day (Observation till day 10 post-infection); type: functional
Mus musculus [2] = assay: (§1) The compound was tested in vivo antimalarial response against multidrug-resistant Plasmodium yoelii in Swiss mice (Mus musculus) at a dose of 48 (mg/kg/day) after 4 day; type: functional
Mus musculus [3] = assay: The compound was tested in vivo antimalarial response against multidrug-resistant Plasmodium yoelii in Swiss mice (Mus musculus) at a dose of 48 (mg/kg/day) after 7 days; type: functional
Mus musculus [4] = assay: The compound was tested in vivo antimalarial response against multidrug-resistant Plasmodium yoelii in Swiss mice (Mus musculus) at a dose of 48 (mg/kg/day) after 10 days; type: functional
Mus musculus [5] = assay: The compound was tested in vivo antimalarial response against multidrug-resistant Plasmodium yoelii in Swiss mice (Mus musculus) at a dose of 96 (mg/kg/day) after 10 days; type: functional, organism-based
Mus musculus [6] = assay: Total number of mice protected out of the 5 tested at a dose of 24 mg/kg/day (Observation till day 10 post-infection); type: functional
Mus musculus [7] = assay: as §1; type: functional, organism-based
Mus musculus [8] = assay: The compound was tested in vivo antimalarial response against multidrug-resistant Plasmodium yoelii in Swiss mice (Mus musculus) at a dose of 96 (mg/kg/day) after 4 day; type: functional, organism-based
Mus musculus [9] = assay: Total number of mice protected out of the 5 tested at a dose of 96 mg/kg/day (Observation till day 10 post-infection); type: functional
Mus musculus [10] = assay: The compound was tested in vivo antimalarial response against multidrug-resistant Plasmodium yoelii in Swiss mice (Mus musculus) at a dose of 24 mg/kg/day after 10 days; type: functional
Mus musculus [11] = assay: The compound was tested in vivo antimalarial response against multidrug-resistant Plasmodium yoelii in Swiss mice (Mus musculus) at a dose of 24 (mg/kg/day) after 7 days; type: functional
Mus musculus [12] = assay: The compound was tested in vivo antimalarial response against multidrug-resistant Plasmodium yoelii in Swiss mice (Mus musculus) at a dose of 96 (mg/kg/day) after 7 days; type: functional, organism-based
Mus musculus [13] = assay: The compound was tested in vivo antimalarial response against multidrug-resistant Plasmodium yoelii in Swiss mice (Mus musculus) at a dose of 24 (mg/kg/day) after 4 days; type: functional

**Q.** How did the MIC (Plasmodium falciparum) turn out when C=C(C)C(O)CCC(=C)C1COC(C)(C)OO1 (stereo unspecified) was run?
**A.** 0.5 µg/mL (≈ 2.06 µM)

**Q.** C=C(CCCO)C1COC2(CCCCC2)OO1 (stereo unspecified) was tested. Which MIC (Plasmodium falciparum) did it give?
**A.** 1 µg/mL (≈ 4.13 µM)

**Q.** Which MIC (Plasmodium falciparum) does the source give for C[C@@H]1CC[C@H]2[C@@H](C)C(=O)O[C@@H]3O[C@@]4(C)CC[C@@H]1[C@]32OO4 [ARTEMISININ] here?
**A.** 0.031 µg/mL (≈ 0.11 µM)

**Q.** Which results are given for CCN(CC)CCCC(C)Nc1ccnc2cc(Cl)ccc12 (stereo unspecified) [CHLOROQUINE]?
**A.** No. of mice protected (Mus musculus [1]): 3; Parasitemia (Mus musculus [2]): 1.53%; Parasitemia (Mus musculus [3]): 17.6%; MIC (Plasmodium falciparum): 0.04 µg/mL (≈ 0.125 µM); Parasitemia (Mus musculus [4]): 32.74%

**Q.** Which MIC (Plasmodium falciparum) does the source give for C=C(CCCO)C1COC(C)(C)OO1 (stereo unspecified) here?
**A.** 1 µg/mL (≈ 4.94 µM)

**Q.** C=C(C)C(O)CCC(=C)C1COC2(OO1)C1CC3CC(C1)CC2C3 (stereo unspecified) was tested. Which “No. of mice protected” value (Mus musculus [1]) did it give?
**A.** 4

**Q.** And the Parasitemia (Mus musculus [5])?
**A.** Nil

**Q.** What about the “No. of mice protected” value (Mus musculus [6]) of the same compound?
**A.** 2

**Q.** What about the Parasitemia (Mus musculus [7]) of the same compound?
**A.** Nil

**Q.** What about the Parasitemia (Mus musculus [3]) of the same compound?
**A.** 2.04%

**Q.** And the Parasitemia (Mus musculus [8])?
**A.** Nil

**Q.** And the “No. of mice protected” value (Mus musculus [9])?
**A.** 5

**Q.** And the MIC (Plasmodium falciparum)?
**A.** 0.031 µg/mL (≈ 0.0927 µM)

**Q.** What about the Parasitemia (Mus musculus [10]) of the same compound?
**A.** 28.4%

**Q.** What about the Parasitemia (Mus musculus [11]) of the same compound?
**A.** 13.38%

**Q.** What about the Parasitemia (Mus musculus [12]) of the same compound?
**A.** Nil

**Q.** And the Parasitemia (Mus musculus [13])?
**A.** 2.42%

**Q.** What about the Parasitemia (Mus musculus [4]) of the same compound?
**A.** 10.5%

**Q.** C=C(C)C(O)CCC(=C)C1COC2(CCCCC2)OO1 (stereo unspecified) was tested. Which MIC (Plasmodium falciparum) did it give?
**A.** 0.125 µg/mL (≈ 0.443 µM)

**Q.** Which MIC (Plasmodium falciparum) does the source give for C=C(C)C(O)CCC(=C)C1COC2(CCCC2)OO1 (stereo unspecified) here?
**A.** 0.125 µg/mL (≈ 0.466 µM)

**Q.** C=C(CCCO)C1COC2(OO1)C1CC3CC(C1)CC2C3 (stereo unspecified) was tested. Which MIC (Plasmodium falciparum) did it give?
**A.** 0.125 µg/mL (≈ 0.425 µM)

**Q.** With C=C(CCCO)C1COC2(CCCC2)OO1 (stereo unspecified) as the compound, how does the MIC (Plasmodium falciparum) read?
**A.** 0.25 µg/mL (≈ 1.1 µM)
